From ChEMBL document CHEMBL1201862, “PubChem BioAssay data set” (2004)
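Dose response: 5 concentrations. Exposure: 48 h. Format: 96-well plates. Endpoint: linear interpolation; highest concentration if not reached. GI50 is the concentration that inhibits growth by half.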 Active and inactive are the calls of the source. No stated cut-off is given here; in the data, active = GI50 up to about 1.1 µM and inactive = higher.

Columns and labels:
Assay in all cases: NCI tumour cell line growth inhibition, 48 h
TK-10 = system: TK-10
NCI-H226 = system: NCI-H226
PC-3 = system: PC-3
NCI-H522 = system: NCI-H522
COLO 205 = system: COLO 205
OVCAR-4 = system: OVCAR-4
SK-MEL-5 = system: SK-MEL-5
MCF7 = system: MCF7
HCC 2998 = system: HCC 2998
SF-539 = system: SF-539
U-251 = system: U-251
SW-620 = system: SW-620
CCRF-CEM = system: CCRF-CEM
RXF 393 = system: RXF 393
DU-145 = system: DU-145
T47D = system: T47D
EKVX = system: EKVX
NCI-H460 = system: NCI-H460
UACC-62 = system: UACC-62
DMS-114 = system: DMS-114

| SMILES | GI50 (TK-10) | GI50 (NCI-H226) | GI50 (PC-3) | GI50 (NCI-H522) | GI50 (COLO 205) | GI50 (OVCAR-4) | GI50 (SK-MEL-5) | GI50 (MCF7) | GI50 (HCC 2998) | GI50 (SF-539) | GI50 (U-251) | GI50 (SW-620) | GI50 (CCRF-CEM) | GI50 (RXF 393) | GI50 (DU-145) | GI50 (T47D) | GI50 (EKVX) | GI50 (NCI-H460) | GI50 (UACC-62) | GI50 (DMS-114) |
| --- | --- | --- | --- | --- | --- | --- | --- | --- | --- | --- | --- | --- | --- | --- | --- | --- | --- | --- | --- | --- |
| O=c1c2ccc(Cl)cc2oc2c(CSc3ccccc3)cccc12 | > 55.3 µM (inactive) | 46.3 µM (inactive) | > 39.5 µM (inactive) | > 32.5 µM (inactive) | > 70 µM (inactive) | > 59.4 µM (inactive) | > 46.6 µM (inactive) | 29.1 µM (inactive) | > 54.1 µM (inactive) | 24.5 µM (inactive) | 39.9 µM (inactive) | 21.5 µM (inactive) | 10.1 µM (inactive) | > 100 µM (inactive) | 70.5 µM (inactive) | 61.7 µM (inactive) | > 50.4 µM (inactive) | 23.8 µM (inactive) | > 41.4 µM (inactive) |  |
| CCOC(=O)CCc1ccc(NC(=O)/C=C/c2ccc([N+](=O)[O-])o2)cc1 | 1.48 µM (inactive) | 4.34 µM (inactive) | 3.03 µM (inactive) | 0.287 µM (active) | 1.52 µM (inactive) | 3.94 µM (inactive) | 1.49 µM (inactive) | 0.426 µM (active) | 2.69 µM (inactive) | 1.72 µM (inactive) | 2.12 µM (inactive) | 0.547 µM (active) | 0.177 µM (active) | 0.794 µM (active) | 2.1 µM (inactive) | 3.24 µM (inactive) | > 100 µM (inactive) | 2.34 µM (inactive) | 2.12 µM (inactive) |  |
| COc1cccc(Nc2n[nH]c(NS(=O)(=O)c3cc(C)c(Cl)cc3S)n2)c1 | > 100 µM (inactive) | > 100 µM (inactive) | > 100 µM (inactive) | > 100 µM (inactive) | > 100 µM (inactive) | > 100 µM (inactive) | > 100 µM (inactive) | > 100 µM (inactive) | > 100 µM (inactive) | > 100 µM (inactive) | > 100 µM (inactive) | > 100 µM (inactive) | > 100 µM (inactive) | > 100 µM (inactive) | > 100 µM (inactive) | > 100 µM (inactive) | > 100 µM (inactive) | > 100 µM (inactive) | > 100 µM (inactive) |  |
| CN(C)c1ccc(/C=C(\C#N)c2nc(-c3cc4ccccc4oc3=O)cs2)cc1 | 8.95 µM (inactive) | 13.6 µM (inactive) | > 50 µM (inactive) | 6.75 µM (inactive) | > 50 µM (inactive) | 24.9 µM (inactive) | > 50 µM (inactive) | > 50 µM (inactive) | > 50 µM (inactive) | 8.89 µM (inactive) | 6.89 µM (inactive) | > 50 µM (inactive) | > 50 µM (inactive) | 12.3 µM (inactive) | > 50 µM (inactive) | > 50 µM (inactive) | > 50 µM (inactive) | > 50 µM (inactive) | 8.61 µM (inactive) |  |
| CC(=C(C(=O)O)C(=O)O)c1cc(-c2cccs2)cc(-c2ccc(Cl)cc2)c1O | 16.2 µM (inactive) | 21.2 µM (inactive) | 13.6 µM (inactive) | 14.3 µM (inactive) | 22.4 µM (inactive) | 26.7 µM (inactive) | 19.3 µM (inactive) | 5.47 µM (inactive) | 18.5 µM (inactive) | 14.6 µM (inactive) | 14.3 µM (inactive) | 18.7 µM (inactive) | 18.7 µM (inactive) | 14 µM (inactive) | 14.4 µM (inactive) | 6.68 µM (inactive) | 17.3 µM (inactive) | 17.1 µM (inactive) | 15.3 µM (inactive) |  |
| CC(N/N=C(\S)N1CCN(c2ccccn2)CC1)c1cccc[n+]1[O-] (stereo not drawn) | 32 µM (inactive) | 34.9 µM (inactive) | 15.3 µM (inactive) | 2.12 µM (inactive) | 10.5 µM (inactive) | 14 µM (inactive) | 12.5 µM (inactive) | 13.2 µM (inactive) | 21.1 µM (inactive) | 17.4 µM (inactive) | 12.8 µM (inactive) | 4.85 µM (inactive) | 1.98 µM (inactive) | 16.2 µM (inactive) | 57.1 µM (inactive) | 77.1 µM (inactive) | 6.47 µM (inactive) | 5.31 µM (inactive) | 2.95 µM (inactive) |  |
| NC(=O)Cc1nc2c(O)ncnc2n1C1OC(CO)C(O)C1O (stereo not drawn) | > 100 µM (inactive) | > 100 µM (inactive) | > 100 µM (inactive) | > 100 µM (inactive) | > 100 µM (inactive) | > 100 µM (inactive) | > 100 µM (inactive) | > 100 µM (inactive) | > 100 µM (inactive) | > 100 µM (inactive) | > 100 µM (inactive) | > 100 µM (inactive) | > 100 µM (inactive) | > 100 µM (inactive) | > 100 µM (inactive) | > 100 µM (inactive) | > 100 µM (inactive) | > 100 µM (inactive) | > 100 µM (inactive) |  |
| COC1CC(NC(=O)C(F)(F)F)C(OC(C)=O)C(C)O1 (stereo not drawn) | > 100 µM (inactive) | 66.5 µM (inactive) | > 100 µM (inactive) | > 100 µM (inactive) | > 100 µM (inactive) | > 100 µM (inactive) | > 100 µM (inactive) | > 100 µM (inactive) | > 100 µM (inactive) | > 100 µM (inactive) | > 100 µM (inactive) | > 100 µM (inactive) | > 100 µM (inactive) | > 100 µM (inactive) | > 100 µM (inactive) | > 100 µM (inactive) | > 100 µM (inactive) | > 100 µM (inactive) | > 100 µM (inactive) |  |
| OCCCCn1cc(Cn2ncc3c(O)ncnc32)nn1 | > 100 µM (inactive) | > 100 µM (inactive) | > 100 µM (inactive) | > 100 µM (inactive) | > 100 µM (inactive) | > 100 µM (inactive) | > 100 µM (inactive) | > 100 µM (inactive) | > 100 µM (inactive) | > 100 µM (inactive) | > 100 µM (inactive) | > 100 µM (inactive) | > 100 µM (inactive) | > 100 µM (inactive) | > 100 µM (inactive) | > 100 µM (inactive) | > 100 µM (inactive) | > 100 µM (inactive) | > 100 µM (inactive) |  |
| O=C1c2cccnc2-c2nccc3c2c1nc1cc(Br)ccc13 | 0.979 µM (active) | 0.216 µM (active) | 0.275 µM (active) | 0.115 µM (active) | 0.798 µM (active) | 0.148 µM (active) | 0.132 µM (active) | < 0.0366 µM (active) | 0.406 µM (active) | 0.279 µM (active) | 0.0843 µM (active) | < 0.0264 µM (active) | 0.0989 µM (active) | 0.0946 µM (active) | 0.121 µM (active) | 0.0883 µM (active) | 1.15 µM (inactive) | 0.138 µM (active) | 0.178 µM (active) |  |
| Cc1nc(SCC(N)=O)c2sc(=S)n(-c3ccccc3)c2n1 | > 10 µM (inactive) | > 10 µM (inactive) | > 10 µM (inactive) | > 10 µM (inactive) | > 10 µM (inactive) | > 10 µM (inactive) | > 10 µM (inactive) | > 10 µM (inactive) | > 10 µM (inactive) | > 10 µM (inactive) | > 10 µM (inactive) | > 10 µM (inactive) | > 10 µM (inactive) | > 10 µM (inactive) | > 10 µM (inactive) | > 10 µM (inactive) | > 10 µM (inactive) | > 10 µM (inactive) | > 10 µM (inactive) |  |
| Cc1cn(C2CC(N/C(=N/C#N)NCC3OC(n4cnc5c(N)ncnc54)CC3O)C(CO)O2)c(=O)[nH]c1=O (stereo not drawn) | > 100 µM (inactive) | > 100 µM (inactive) | > 100 µM (inactive) | > 100 µM (inactive) | > 100 µM (inactive) | > 100 µM (inactive) | > 100 µM (inactive) | 1.04 µM (active) | > 100 µM (inactive) | > 100 µM (inactive) | > 100 µM (inactive) | > 100 µM (inactive) | > 100 µM (inactive) | > 100 µM (inactive) | > 100 µM (inactive) | > 100 µM (inactive) | > 100 µM (inactive) | > 100 µM (inactive) | > 100 µM (inactive) |  |
| COC(C)(C)C(O)C(O)C[C@H](C)C1CC=C2C1(C)CCC1[C@@]3(C)CCC(OC(C)=O)C(C)(C)C3CC(OC3OC(COC(C)=O)C(O)C(O)C3O)[C@@]21C (stereo partly drawn) | 4.53 µM (inactive) | 5.21 µM (inactive) | 3.48 µM (inactive) | 2.78 µM (inactive) | 1.99 µM (inactive) | 5.86 µM (inactive) | 2.21 µM (inactive) | 3.33 µM (inactive) | 2.14 µM (inactive) | 2.83 µM (inactive) | 4.37 µM (inactive) | 5.38 µM (inactive) | 3 µM (inactive) | 3.85 µM (inactive) | 7.1 µM (inactive) | 5.13 µM (inactive) | 4.79 µM (inactive) | 3.24 µM (inactive) | 2.76 µM (inactive) |  |
| Cc1cccc2c(O)cc(=O)oc12 | > 100 µM (inactive) | > 100 µM (inactive) |  |  |  | > 100 µM (inactive) |  |  |  | > 100 µM (inactive) | > 100 µM (inactive) | > 100 µM (inactive) | > 100 µM (inactive) | > 100 µM (inactive) |  |  | > 100 µM (inactive) | > 100 µM (inactive) | > 100 µM (inactive) | > 100 µM (inactive) |
| CCCCn1c(-c2ccccc2)cs/c1=N\N=C1C=C(C(C)(C)C)C(=O)C(C(C)(C)C)=C1 | > 100 µM (inactive) | > 100 µM (inactive) |  |  | > 100 µM (inactive) | > 100 µM (inactive) |  |  | > 100 µM (inactive) | > 100 µM (inactive) | > 100 µM (inactive) | > 100 µM (inactive) | > 100 µM (inactive) | > 100 µM (inactive) |  |  | > 100 µM (inactive) | > 100 µM (inactive) | > 100 µM (inactive) | > 100 µM (inactive) |
